# Measurements as given in patent US10752587B2, “Homobispiperidinyl derivatives as liver X receptor beta agonists, compositions and their use” (Merck Sharp & Dohme Corp., priority 2015, dated 2020).
# Read-outs that look alike come from different tables or passages of the source.
# What was measured:
# [1] = molecular target: T1, glutathione-S-transferase (GST) tagged LXRbeta LBD (ligand binding domain) (Homo sapiens, UniProt P55055); test: LanthaScreen TR-FRET Liver X Receptor Coactivator Assay, co-activator recruitment to LXRbeta LBD; assay type: biochemical
# T1 construct: purchased Invitrogen pv4658.pps
# T1 sequence (P55055 222-460 limits assumed): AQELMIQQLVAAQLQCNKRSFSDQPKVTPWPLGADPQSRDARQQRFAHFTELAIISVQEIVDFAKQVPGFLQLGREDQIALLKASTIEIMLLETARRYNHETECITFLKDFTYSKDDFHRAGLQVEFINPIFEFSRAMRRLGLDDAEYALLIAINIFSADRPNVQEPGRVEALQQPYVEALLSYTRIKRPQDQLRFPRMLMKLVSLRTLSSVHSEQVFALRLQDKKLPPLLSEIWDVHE
# Procedure, shortened: (§1)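 Readout is time-resolved FRET between a terbium anti-GST antibody bound to the LBD and a fluorescein-tagged coactivator peptide recruited on ligand binding. Plates were incubated at room temperature before reading. Potency (IP) and efficacy (Emax) are referenced to T0901317.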
# [2] = molecular target: T2, glutathione-S-transferase (GST) tagged LXRalpha LBD (ligand binding domain) (Homo sapiens, UniProt Q13133); test: LanthaScreen TR-FRET Liver X Receptor Coactivator Assay, co-activator recruitment to LXRalpha LBD; assay type: biochemical; details: for LXR alpha IP (nM) / EC50: potency (Inflection Point, IP), co-activator recruitment to LXRalpha LBD, in relation to T0901317; for EC50: read-out: LXR alpha IP
# T2 construct: purchased Invitrogen pv4655
# T2 sequence (Q13133 209-447 limits assumed): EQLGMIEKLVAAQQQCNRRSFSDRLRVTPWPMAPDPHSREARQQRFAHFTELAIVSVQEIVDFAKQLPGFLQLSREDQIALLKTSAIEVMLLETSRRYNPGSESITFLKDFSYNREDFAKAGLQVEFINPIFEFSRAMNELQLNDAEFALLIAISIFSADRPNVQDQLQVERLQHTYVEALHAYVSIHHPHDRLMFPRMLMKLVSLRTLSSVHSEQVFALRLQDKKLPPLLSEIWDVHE
# Procedure, shortened: as §1
# [3] = efficacy at max dose, in relation to reference dual agonist T0901317, read-out: LXR beta Activity @ max dose (%)
# [4] = potency (Inflection Point, IP), co-activator recruitment to LXRbeta LBD, in relation to T0901317, read-out: LXR beta IP
# [5] = efficacy at max dose, in relation to reference dual agonist T0901317, read-out: LXR alpha Activity @ max dose (%)
Structure (SMILES),"Emax [1, 3]","EC50 [1, 4]","Emax [2, 5]",LXR alpha IP (nM) [2],EC50 [2],also measured
"CN(C)C(=O)c1ccc(N2CCC(CC3CCN(C(=O)C(N)(c4cccc(Cl)c4)C(F)(F)F)CC3)CC2)cc1Cl (stereo not drawn) [Example 2-167, 4-[4-({1-[2-amino-2-(3-chlorophenyl)-3,3,3-trifluoro-propanoyl]piperidin-4-yl}methyl)piperidin-1-yl]-2-chloro-N,N-dimethyl-benzamide]",75%,37 nM,18%,NO IP,–,–
"CN(C)C(=O)c1ccc(N2CCC(CC3CCN(C(=O)C(O)(Cc4ccccc4)C(F)(F)F)CC3)CC2)cc1Cl (stereo not drawn) [Example 2-36, 4-(4-{[1-(2-benzyl-3,3,3-trifluoro-2-hydroxy-propanoyl)piperidin-4-yl]methyl}piperidin-1-yl)-2-chloro-N,N-dimethyl-benzamide]",126%,110 nM,43%,–,1060 nM,–
"CN(C)C(=O)c1ccc(N2CCC(CC3CCN(C(=O)[C@](O)(c4ccccc4)C4CC4)CC3)CC2)cc1Cl [Example 2-105, 2-chloro-4-[4-({1-[(2R)-2-cyclopropyl-2-hydroxy-2-phenylacetyl]piperidin-4-yl}methyl)piperidin-1-yl]-N,N-dimethyl-benzamide]",–,–,–,NO IP,–,"EC50 ([1]; LXR beta IP (nM), potency (Inflection Point, IP), co-activator recruitment to LXRbeta LBD, in relation to T0901317): 21 nM; Emax ([1]; read-out: LXR beta Activity @ max dose (%)): 48%; Emax ([2]; read-out: LXR alpha Activity @ max dose (%)): 12%"
"COc1cccc([C@@](O)(C(=O)N2CCC(CC3CCN(c4ccc(C(=O)N(C)C)c(Cl)c4)CC3)CC2)C(F)(F)C(F)(F)F)c1 [Example 2-89, 2-chloro-N,N-dimethyl-4-[4-({1-[(2R)-3,3,4,4,4-pentafluoro-2-hydroxy-2-{3-methoxyphenyl)butanoyl]piperidin-4-yl}methyl)piperidin-1-yl]benzamide]",83%,21 nM,23%,–,304 nM,–
"CN(C)C(=O)c1ccc(N2CCC(OC3CCN(C(=O)C(F)(F)F)CC3)CC2)cc1Cl [Example 2-29, 2-chloro-N,N-dimethyl-4-(4-{[1-(trifluoro-acetyl)piperidin-4-yl]oxy}piperidin-1-yl)benzamide]",65%,3790 nM,25%,NO IP,–,–
"CN(C)C(=O)c1ccc(N2CCC(CC3CCN(C(=O)[C@](O)(c4cccc(OC5CC5)c4)C(F)(F)F)CC3)CC2)cc1Cl [Example 2-99, 2-chloro-4-{4-[(1-{(2R)-2-[3-(cyclopropyloxy)phenyl]-3,3,3-trifluoro-2-hydroxy-propanoyl}piperidin-4-yl)methyl]piperidin-1-yl}-N,N-dimethyl-benzamide]",37%,8 nM,0%,NO IP,–,–
"CN(C)C(=O)c1ccc(N2CCC(CC3CCN(C(=O)C(O)(c4cccnc4)C(F)(F)F)CC3)CC2)cc1Cl (stereo not drawn) [Example 2-90, 2-chloro-N,N-dimethyl-4-(4-{[1-(3,3,3-trifluoro-2-hydroxy-2-pyridin-3-ylpropanoyl)piperidin-4-yl]methyl}piperidin-1-yl)benzamide]",99%,78 nM,46%,–,3550 nM,–
"CN(C)C(=O)c1ccc(N2CCC(CC3CCN(C(=O)[C@](O)(c4ccccc4)C(F)(F)F)CC3)CC2)cc1 [Example 2-128, N,N-dimethyl-4-[4-({1-[(2R)-3,3,3-trifluoro-2-hydroxy-2-phenyl-propanoyl]piperidin-4-yl}methyl)piperidin-1-yl]benzamide]",73%,58 nM,34%,–,1040 nM,–
"CC(C)Oc1cccc([C@@](O)(C(=O)N2CCC(CC3CCN(c4ccc(C(N)=O)c(Cl)c4)CC3)CC2)C(F)(F)F)c1 [Example 12-7, 2-chloro-4-{4-[(1-{(2R)-3,3,3-trifluoro-2-hydroxy-2-[3-(1-methylethoxy)phenyl)-propanoyl}piperidin-4-yl)methyl]piperidin-1-yl}benzamide]",–,–,–,–,–,"EC50 ([1]; co-activator recruitment to GST-LXRbeta LBD, TR-FRET, read-out: LXR beta IP (Inflection Point, potency)): 6 nM; Emax ([1]; efficacy in relation to reference dual agonist T0901317, read-out: LXR beta Activity @ max dose): 33%; LXR alpha IP (Inflection Point, potency) ([2]; co-activator recruitment to GST-LXRalpha LBD, TR-FRET): NO IP; Emax ([2]; efficacy in relation to reference dual agonist T0901317, read-out: LXR alpha Activity @ max dose): 12%"

# Second part, led by results:
"Emax [1, 3]","EC50 [1, 4]","Emax [2, 5]",LXR alpha IP (nM) [2],EC50 [2],Structure (SMILES),also measured
53%,8 nM,13%,NO IP,–,"CN(C)C(=O)c1ccc(N2CCC(CC3CCN(C(=O)C(O)(c4cc(Cl)cc(Cl)c4)C(F)(F)F)CC3)CC2)nc1Cl (stereo not drawn) [Example 7-83, 2-chloro-6-[4-({1-[2-(3,5-dichlorophenyl)-3,3,3-trifluoro-2-hydroxypropanoyl]piperidin-4-yl}methyl)piperidin-1-yl]-N,N-dimethylpyridine-3-carboxamide]",–
78%,51 nM,30%,–,1180 nM,"CNC(=O)c1ccc(N2CCC(CC3CCN(C(=O)[C@](O)(c4cccc(C(F)(F)F)c4)C(F)(F)F)CC3)CC2)cc1Cl [Example 7-128, 2-chloro-N-methyl-4-{4-[(1-{(2R)-3,3,3-trifluoro-2-hydroxy-2-[3-(trifluoromethyl)phenyl]propanoyl}piperidin-4-yl)methyl]piperidin-1-yl}benzamide]",–
95%,6 nM,31%,–,298 nM,"CN(C)C(=O)c1ccc(N2CCC(CC3CCN(C(=O)C(O)(c4cccc(C#N)c4)C(F)(F)F)CC3)CC2)nc1Cl (stereo not drawn) [Example 7-78, 2-chloro-6-[4-({1-[2-(3-cyanophenyl)-3,3,3-trifluoro-2-hydroxypropanoyl]piperidin-4-yl}methyl)piperidin-1-yl]-N,N-dimethylpyridine-3-carboxamide]",–
113%,4 nM,49%,–,291 nM,"CN(C)C(=O)c1ccc(N2CCC(CC3CN(C(=O)[C@](O)(c4cc(F)cc(Cl)c4)C(F)(F)F)C3)CC2)nc1Cl [Example 7-40, 2-chloro-6-[4-({1-[(2R)-2-(3-chloro-5-fluorophenyl)-3,3,3-trifluoro-2-hydroxypropanoyl]azetidin-3-yl}methyl)piperidin-1-yl]-N,N-dimethylpyridine-3-carboxamide]",–
80%,11 nM,19%,–,274 nM,"COc1cccc(C(O)(C(=O)N2CCC(CC3CCN(c4ccc(C(=O)N(C)C)c(Cl)n4)CC3)CC2)C(F)(F)C(F)(F)F)c1 (stereo not drawn) [Example 7-58, 2-chloro-N,N-dimethyl-6-[4-({1-[3,3,4,4,4-pentafluoro-2-hydroxy-2-(3-methoxyphenyl)butanoyl]piperidin-4-yl}methyl)piperidin-1-yl]pyridine-3-carboxamide]",–
64%,10 nM,16%,NO IP,–,"CC(C)Oc1cccc([C@@](O)(C(=O)N2CCC(C)(CC3CCN(c4ccc(C(=O)N(C)C)c(Cl)n4)CC3)CC2)C(F)(F)F)c1 [Example 7-48, 2-chloro-N,N-dimethyl-6-{4-[(4-methyl-1-{(2R)-3,3,3-trifluoro-2-hydroxy-2-[3-(1-methylethoxy)phenyl]propanoyl}piperidin-4-yl)methyl]piperidin-1-yl}pyridine-3-carboxamide]",–
69%,21 nM,11%,NO IP,–,"CNC(=O)c1ccc(N2CCC(CC3CCN(C(=O)[C@](O)(c4cccc(OC(C)C)c4)C(F)(F)F)CC3)CC2)cc1Cl [Example 7-121, 2-chloro-N-methyl-4-{4-[(1-{(2R)-3,3,3-trifluoro-2-hydroxy-2-[3-(1-methylethoxy)phenyl]propanoyl}piperidin-4-yl)methyl]piperidin-1-yl}benzamide]",–
78%,96 nM,25%,–,784 nM,"CNC(=O)c1ccc(N2CCC(CC3CCN(C(=O)C(O)(c4cccc(C(F)(F)F)c4)C(F)(F)F)CC3)CC2)cc1Cl (stereo not drawn) [Example 7-35, 2-chloro-N-methyl-4-{4-[(1-{3,3,3-trifluoro-2-hydroxy-2-[3-(trifluoromethyl)phenyl]propanoyl}piperidin-4-yl)methyl]piperidin-1-yl}benzamide]",–
127%,6 nM,58%,–,69 nM,"CNC(=O)c1ccc(N2CCC(CC3CCN(C(=O)[C@](O)(c4cccc(F)c4)C(F)(F)F)CC3)CC2)nc1Cl [Example 7-152, 2-chloro-N-methyl-6-[4-({1-[(2R)-3,3,3-trifluoro-2-(3-fluorophenyl)-2-hydroxypropanoyl]piperidin-4-yl}methyl)piperidin-1-yl]pyridine-3-carboxamide]",–
